The test system of assay [1] is LPS-stimulated macrophages. The assay can be described thus: Cytokine secretion in TLR-stimulated bone-marrow derived macrophages. The class given is cell-based, mouse. As to the method:
(§1) Bone-marrow derived macrophages were differentiated for 7 days in DMEM supplemented with 5 ng/ml recombinant M-CSF (R&D systems), 2 mM glutamine, 10% foetal calf serum, penicillin and streptomycin.
(§2) Following stimulation with ligands, the cell culture medium was removed, clarified by centrifugation for 10 min at 14000×g and the concentration of TNFα, IL-6, IL-10, IL-12p40, and RANTES were measured using the Bio-Plex Pro Assay system from Bio-Rad. IFNβ was measured using an ELISA kit from R&D Systems according to the manufacturers' instructions.
RNA was extracted using the RNeasy Micro Kit (Qiagen). cDNA was generated using the iScript cDNA synthesis kit and quantified by qPCR using the SsoFast EvaGreen Supermix (Bio-Rad Laboratories). […] Fold-induction for each gene was reported relative to untreated control cells, which was set to 1. The concentrations of TNFα, IL-6, IL-10, IL-12p40, and RANTES in culture supernatants were measured using the Bio-Plex Pro Assay system from Bio-Rad. Further details in supplementary information.
Following stimulation with ligands, the cell culture medium was removed, clarified by centrifugation for 10 min at 14000×g and the concentration of TNFα, IL-6, IL-10, IL-12p40 and RANTES were measured using the Bio-Plex Pro Assay system from Bio-Rad. IL-1ra and IFNβ were measured using ELISA kits from R&D Systems.

Assay [2] has as its system AMPK-related kinases. Format: biochemical. The settings on record: members of the AMPK subfamily other than SIKs. As to the method: Recombinant SIK1, SIK2, SIK3 were expressed as GST-fusion proteins in HEK293 cells and purified on a glutathione-Sepharose column. […] FLAG-CRTC3 was immunoprecipitated using anti-FLAG M2 agarose, washed in kinase buffer (50 mM Tris/HCl pH 7.4, 10 mM Mg acetate, 0.1 mM EGTA, 2 mM DTT) and reactions initiated by adding 4 U/ml recombinant kinase with 0.1 mM ATP (specific activity 3000 cpm/pmol). Phosphorylation of CRTC3 was monitored by autoradiography as well as immunoblotting using phosphospecific antibodies raised against Ser162, Ser329 and Ser370. […] Kinase profiling was performed as previously described (7) and performed by the International Centre for Kinase Profiling (www.kinase-screen.mrc.ac.uk).

Assay [3] deals with CRTC3. As to the kind of experiment: IL-10 production in macrophages after siRNA knockdown of CRTC3. Conditions: TLR/LPS-stimulated macrophages. Format: cell-based, mouse. An excerpt:
BMDMs were transfected with siRNA oligonucleotides against CRTC1, CRTC2, CRTC3 or non-targetting oligonucleotides as a negative control. […] Gene expression was quantified by qPCR and reported relative to mRNA levels measured in untreated cells (1.0). Knockdown efficiency was monitored by qPCR (mean±SD, n=4).
RNAi in Macrophages RAW264.7 cells or BMDMs were transfected with 100 pmol of SMARTpool siRNA oligos against CREB, CRTC1, CRTC2, CRTC3 or a non-targetting control (Dharmacon) using AMAXA nucleofection. Cells were cultured for 24 h prior to incubation with inhibitors for 1 h followed by stimulation for 1 h with 100 ng/ml LPS. Gene expression was measured by real-time quantitative PCR. For shRNA knockdown of SIKs, lentivirus was generated according to the manufacturer's instructions (Sigma) and RAW264.7 cells were infected using virus harvested 48 and 72 h post-transfection. Infected cells were selected using 3 μg/ml puromycin. QPCR

The test system of assay [4] is LPS-stimulated BMDMs. As to the kind of experiment: Expression of macrophage markers in LPS-stimulated BMDMs (qPCR). The settings on record: for LPS-stimulated expression of SPHK1, LIGHT and Arginase 1: 500 nM. Format: cell-based, mouse. The method, then:
FIGS. 10A to 10E. Inhibition of the LKB1-SIK-CRTC3-IL10 signaling axis drives the expression of markers of regulatory macrophages. (FIG. 10A) Effect of SIK inhibitors on the LPS-stimulated expression of LIGHT, SPHK1, Arg1 and IL-1ra (n=4, mean±SD). […] (FIG. 10C) Elevated expression of markers of regulatory macrophage in LKB1−/− macrophages. BMDMs were generated from LysM-Cre/LKB1+/+ and LysM-Cre/LKB1flox/flox mice and stimulated with 100 ng/ml LPS (mean±SD, n=3). (FIG. 10D) CRTC3 is required for the induction of markers of regulatory macrophages. […] LIGHT and SPHK1 mRNA was measured at 2 h and Arg1 at 8 h post-LPS stimulation (mean±SD, n=4). […] The experiment was carried out as in (FIG. 10D) except that BMDMs were generated from IL-10+/+ and IL-10−/− mice (mean±SD, n=4).
mRNA was extracted from cells using the RNeasy Micro Kit following the manufacturers' instructions (Qiagen). cDNA was generated from 1 μg of total RNA using the iScript cDNA synthesis kit and quantified by qPCR using the SsoFast EvaGreen Supermix on a CFX96 real time system (Bio-Rad Laboratories). The relative expression of each gene was calculated from Ct values using the Pfaffl method (5) and was normalized against the mRNA levels of 18S RNA or GAPDH. Results are reported relative to untreated control cells, which was set to 1. The following primers were used: […]

In assay [5] the test system is MARK isoforms. The assay can be described thus: Kinase assays, MARK isoforms. Format: biochemical. Conditions: in vitro.
In assay [6] the test system is IL-10−/− macrophages. The assay can be described thus: Cytokine production in IL-10−/− macrophages. The class given is cell-based, mouse. Conditions: all TLR ligands examined other than LPS. The method, then: FIGS. 2A to 2G. […] As in A except that cells were stimulated for 2 h with LPS.
IL-10^−/− mice on a C57Bl/6 background were purchased from The Jackson Laboratory, Maine, USA. C57Bl/6, and IL-10^−/− mice were bred at the University of Dundee under specific pathogen-free conditions in accordance with European Union regulations. Work was approved by local ethical review and was performed with a UK Home Office project license.
as §1, §2

Each structure is given as a SMILES string. “Also recorded” adds a separate entry of the source.

`COc1ccc(N(C(=O)Nc2c(C)cccc2C)c2cc(Nc3ccc(N4CCN(C)CC4)cc3)ncn2)c(OC)c1` [HG-9-91-01, 1-(2,4-dimethoxyphenyl)-3-(2,6-dimethylphenyl)-1-(6-((4-(4-methylpiperazin-1-yl)phenyl)amino)pyrimidin-4-yl)urea]: in assay [1] (LPS-stimulated macrophages), the IL-10 secretion entry is “stimulate IL-10 secretion in a dose dependent manner; also recorded: increased” and the pro-inflammatory cytokine secretion entry is on record as “greatly suppressed”. Further, the “inhibition of AMPK-related kinases” value in assay [2] was “did not inhibit any other member”. The “effect of compound on IL-10 production after siRNA knockdown of CRTC3” value in assay [3] is “abolishes the effects; also recorded: CRTC3 was required”. Moreover, in assay [4] (IL-10−/− macrophages), the “LPS-stimulated expression of SPHK1, LIGHT and Arginase 1” value is “greatly reduced”. Further, the “LPS-stimulated expression of SPHK1, LIGHT and Arginase 1” value in assay [4] (cells treated with CRTC3 siRNA) is “did not occur”.

On to `O=C(NCCCNc1nc(Nc2cccc(CN3CCOCC3)c2)ncc1C1CC1)C1CCC1` [MRT67307], for which, in assay [5], the “inhibition of MARK isoforms” value was “comparable potency to the IKK-related kinases”. Also, in assay [1] (LPS), the IFNβ secretion entry is “potently inhibited”. Moreover, in assay [1] (LPS-stimulated macrophages), the IL-10 secretion entry is “stimulate IL-10 secretion in a dose dependent manner; also recorded: far higher levels of IL-10” and the pro-inflammatory cytokine secretion result is given as “much lower levels of pro-inflammatory cytokines”. Also, in assay [1] (in response to TLR ligands), the IL-10 secretion result is given as “high levels of IL-10” and the IL-12p40 secretion result is “low levels of IL-12p40”. Further, the “inhibition of AMPK-related kinases” value in assay [2] is “potently inhibits”. Further, in assay [6], the “secretion of pro-inflammatory cytokines” value is given as “failed to suppress”. In assay [3], the “effect of compound on IL-10 production after siRNA knockdown of CRTC3” value is “completely suppressed the effects”. Besides, the “IL-1ra mRNA” value in assay [4] (LPS-stimulated macrophages) is listed as “greatly increased”. In assay [4] (TLR/LPS-stimulated macrophages), the “mRNAs of regulatory macrophage markers (arginase-1, SPHK1, LIGHT)” value is on record as “stimulating the production”. Besides, the “switch of macrophage programme from classically activated towards regulatory phenotype” value in assay [4] (quiescent macrophages) is “switched their maturation programme from the classically activated route towards the regulatory phenotype”.

The record behind these values is patent US10233157B2, “SIK inhibitor for use in a method of treating an inflammatory and/or immune disorder” (Dana-Farber Cancer Institute, Inc., priority 2012, dated 2019).
